Laboratory results as given in publication PMC5224920, “Assessing the mechanism and therapeutic potential of modulators of the human Mediator complex-associated protein kinases” (eLife, 2016).
Where two headings read alike, the source gives them in different places.

Assays:
CDK8 = CDK8 (Homo sapiens, UniProt P49336); test: CDK8 binding (Lanthascreen binding competition / reporter displacement assay)
CDK19 = molecular target: T1, CDK19 (Homo sapiens, UniProt Q9BWU1); test: CDK19 reporter displacement assay; assay type: binding
T1 construct: purchased Proteros Biostructures GmbH (Germany), assay service

Caco-2 permeability = assay type: in vitro ADME; settings: human
Mouse PK = assay type: in vivo
Rat PK = assay type: in vivo
Dog PK = assay type: in vivo; settings: for Dog PK Cl / Dog PK Vd: 0.2mg/kg i.v.
COLO205 [1] = test: 24 hour TCF/LEF reporter assay, COLO205; assay type: cell-based; settings: Homo sapiens, COLO 205, 24 h, read-out: 24 hour TCF/LEF Reporter assay IC50
DLD1 [2] = test: 24 hour TCF/LEF reporter assay, DLD1; assay type: cell-based; settings: Homo sapiens, DLD-1, 24 h, read-out: 24 hour TCF/LEF Reporter assay IC50
LS180 [3] = test: 24 hour TCF/LEF reporter assay, LS180; assay type: cell-based; settings: Homo sapiens, LS180, 24 h, read-out: 24 hour TCF/LEF Reporter assay IC50
LS174T [4] = test: 24 hour TCF/LEF reporter assay, LS174T; assay type: cell-based; settings: Homo sapiens, read-out: 24 hour TCF/LEF Reporter assay IC50
RKO [5] = test: 24 hour reporter assay, RKO negative control (EEF1A1 promoter-reporter); assay type: cell-based; settings: Homo sapiens, RKO, read-out: 24 hour TCF/LEF Reporter assay IC50
SW837 [6] = test: 24 hour TCF/LEF reporter assay, SW837; assay type: cell-based; settings: Homo sapiens, SW837, 24 h, read-out: 24 hour TCF/LEF Reporter assay IC50
LS513 [7] = test: 14 d colony growth assay, LS513; assay type: cell-based, human; settings: 350 nM, mean (range), n = 2
[8] = test system: SW620 human colorectal cancer xenografts; test: SW620 human colorectal cancer xenograft, tumor growth inhibition; assay type: in vivo
[9] = test system: LS1034 colorectal cancer xenografts; test: LS1034 colorectal cancer xenograft, tumor growth inhibition; assay type: in vivo, human
[10] = test system: p-STAT1^SER727 in SW620 tumor xenografts; test: p-STAT1 SER727 level in SW620 xenografts (pharmacodynamics); assay type: in vivo, human
Experimental: As with 3, 10 mg/kg of 4 inhibited the pathway biomarker for 6 hr, but was not sufficient for antitumor activity in SW620 xenografts (Figure 2A and Figure 2—source data 1).

MV-4-11 AML xenograft = test: MV-4-11 AML subcutaneous xenograft; assay type: in vivo, human
Wistar rats = test: 14-day oral tolerability study in rats; assay type: in vivo; settings: for Target organs: Rat
Excerpt: Animals were culled 24 hr after the last dose. Additional satellite animals for toxicokinetic evaluations were included.

RKO [11] = test: 96 hour proliferation GI50, RKO; settings: Homo sapiens, read-out: 96 hour GI50
HT29 = test: 96 hour proliferation GI50, HT29; settings: Homo sapiens, HT-29, 96 h, read-out: 96 hour GI50
DLD1 [12] = test: 96 hour proliferation GI50, DLD1; settings: Homo sapiens, DLD-1, 96 h, read-out: 96 hour GI50
SW948 = test: 96 hour proliferation GI50, SW948; settings: Homo sapiens, SW948, 96 h, read-out: 96 hour GI50
LS513 [13] = test: 96 hour proliferation GI50, LS513; settings: Homo sapiens, LS-513, 96 h, read-out: 96 hour GI50
LS180 [14] = test: 96 hour proliferation GI50, LS180; settings: Homo sapiens, LS180, 96 h, read-out: 96 hour GI50
SW620 = test: 96 hour proliferation GI50, SW620; settings: Homo sapiens, SW-620, 96 h, read-out: 96 hour GI50
SW837 [15] = test: 96 hour proliferation GI50, SW837; settings: Homo sapiens, SW837, 96 h, read-out: 96 hour GI50
LS174T [16] = test: 96 hour proliferation GI50, LS174T; settings: Homo sapiens, read-out: 96 hour GI50
COLO205 [17] = test: 96 hour proliferation GI50, COLO205; settings: Homo sapiens, COLO 205, 96 h, read-out: 96 hour GI50
Beagle dogs = test: 14-day oral tolerability study in dogs; settings: for Fold of efficacious dose; 10 mg/kg / Fold of efficacious dose; 30 mg/kg: CMPD 4, dog 20 mg/kg; for Target organs: Dog
LS174T [18] = test: LS174T basal WNT-pathway luciferase reporter
p-STAT1^SER727 = test: Inhibition of STAT1 SER727 phosphorylation in cells (target-engagement biomarker)
[19] = low dose 5 mg/kg daily oral for 14 days

Chain of CDK8 (P49336 whole entry): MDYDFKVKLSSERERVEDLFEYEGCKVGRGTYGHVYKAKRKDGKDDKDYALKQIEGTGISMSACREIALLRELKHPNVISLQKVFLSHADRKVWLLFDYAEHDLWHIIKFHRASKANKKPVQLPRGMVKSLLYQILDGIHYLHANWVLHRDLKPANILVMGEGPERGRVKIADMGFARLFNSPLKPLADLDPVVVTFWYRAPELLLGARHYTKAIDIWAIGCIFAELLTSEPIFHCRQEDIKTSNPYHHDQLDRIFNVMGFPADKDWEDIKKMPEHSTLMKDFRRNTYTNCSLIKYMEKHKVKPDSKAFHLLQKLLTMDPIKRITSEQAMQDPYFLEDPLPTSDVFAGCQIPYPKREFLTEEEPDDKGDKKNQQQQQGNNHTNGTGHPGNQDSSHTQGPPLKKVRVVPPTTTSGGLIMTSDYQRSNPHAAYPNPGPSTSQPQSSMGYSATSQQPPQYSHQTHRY
Chain of CDK8 (P24863 whole entry partner): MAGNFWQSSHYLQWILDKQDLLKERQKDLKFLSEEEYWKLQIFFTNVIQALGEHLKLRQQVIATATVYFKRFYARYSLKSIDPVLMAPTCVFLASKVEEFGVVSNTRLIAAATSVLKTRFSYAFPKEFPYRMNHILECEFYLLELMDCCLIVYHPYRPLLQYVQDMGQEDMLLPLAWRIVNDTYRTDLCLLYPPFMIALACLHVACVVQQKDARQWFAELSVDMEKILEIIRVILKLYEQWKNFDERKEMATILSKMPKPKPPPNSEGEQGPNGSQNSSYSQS
T1 sequence (Q9BWU1 whole entry): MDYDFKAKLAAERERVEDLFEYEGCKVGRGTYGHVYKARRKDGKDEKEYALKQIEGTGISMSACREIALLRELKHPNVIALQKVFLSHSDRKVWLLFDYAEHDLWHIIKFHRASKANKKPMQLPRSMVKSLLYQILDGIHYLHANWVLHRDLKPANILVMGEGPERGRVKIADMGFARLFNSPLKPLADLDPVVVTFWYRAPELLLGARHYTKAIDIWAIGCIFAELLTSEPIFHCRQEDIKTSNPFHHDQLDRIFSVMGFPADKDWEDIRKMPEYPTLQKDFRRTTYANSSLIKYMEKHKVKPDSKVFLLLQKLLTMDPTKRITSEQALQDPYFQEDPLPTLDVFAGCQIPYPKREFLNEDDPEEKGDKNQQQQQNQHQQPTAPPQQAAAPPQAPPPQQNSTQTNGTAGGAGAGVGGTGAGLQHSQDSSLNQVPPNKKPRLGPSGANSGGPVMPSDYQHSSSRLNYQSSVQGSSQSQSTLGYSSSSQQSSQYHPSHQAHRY
T1 sequence (P24863 whole entry partner): as the sequence (P24863 whole entry partner) above

## Cc1n[nH]c2ncc(C(=O)N3CCC[C@H]3c3ccc(Cl)cc3)cc12 [CMPD 4]
CDK8
  IC50: 4.4 ± 0.3 nM
CDK19
  IC50: 3.8 ± 0.4 nM
Caco-2 permeability
  efflux ratio: 1.49
Mouse PK; 0.2mg/kg i.v.
  Mouse PK Cl: 22.8 mL/min/kg
Mouse PK; 0.2mg/kg i.v. or 0.5mg/kg p.o.
  Mouse PK F: 25%
Mouse PK; female, NMRI, mouse, in vivo, iv, 0.2mg/kg i.v.
  Vd: 0.59 L/kg
Rat PK; 0.2mg/kg i.v.
  Rat PK Vd: 1.62 L/kg
Rat PK; 0.2mg/kg i.v. or 0.5mg/kg p.o.
  Rat PK F: 66%
Rat PK; male, Wistar, rat, in vivo, iv, 0.2mg/kg i.v., read-out: Rat PK Cl (converted)
  clearance: 25 mL/min/kg
Dog PK
  Dog PK Cl: 22.5 mL/min/kg
  Dog PK Vd: 1.47 L/kg
Dog PK; 0.2mg/kg i.v. or 0.5mg/kg p.o.
  Dog PK F: 39%
COLO205 [1]
  IC50: 9 nM
DLD1 [2]
  IC50: 97 nM
LS180 [3]
  IC50: 31 nM
LS174T [4]
  IC50: 31 nM
RKO [5]
  IC50: > 30000 nM
SW837 [6]
  IC50: 8 nM
LS513 [7]
  14 d colony growth (relative to control): 0.04 (0.01)
[8]; 5 x 2 mg/kg x doses/day, day 13, nr = no response, P ns
  TGI: nr
[8]; 10 x 1 mg/kg x doses/day, day 13, nr = no response, P ns
  TGI: nr
[8]; 50 x 2b mg/kg x doses/day, day 16, P ns
  TGI: 51%
[8]; 100 x 1 mg/kg x doses/day, day 16, P ns
  TGI: 43%
[9]; 50 x 2 mg/kg x doses/day, day 22, P ns
  TGI: 52%
[9]; 100 x 1 mg/kg x doses/day, day 22, P ns
  TGI: 30%
[10]; SW620 xenografts, 10 mg/kg
  Time pathway biomarker (p-STAT1^SER727) inhibited: 6 h
MV-4-11 AML xenograft; 2 hr post-treatment
  Target inhibition by p-STAT1^SER727: near maximal target inhibition
Wistar rats; CMPD 4, rat 10 mg/kg, female
  Fold of efficacious dose; 10 mg/kg: ~2.4
  Fold of efficacious dose; 30 mg/kg: ~0.8
Wistar rats; CMPD 4, rat 10 mg/kg, male
  Fold of efficacious dose; 10 mg/kg: ~0.9
  Fold of efficacious dose; 30 mg/kg: ~0.3
Wistar rats; CMPD 4, rat 20 mg/kg, female
  Fold of efficacious dose; 10 mg/kg: ~5.7
  Fold of efficacious dose; 30 mg/kg: ~1.9
Wistar rats; CMPD 4, rat 20 mg/kg, male
  Fold of efficacious dose; 10 mg/kg: ~3.9
  Fold of efficacious dose; 30 mg/kg: ~1.3
Wistar rats; CMPD 4, rat 60 mg/kg, female
  Fold of efficacious dose; 10 mg/kg: ~23.1
  Fold of efficacious dose; 30 mg/kg: ~7.7
Wistar rats; CMPD 4, rat 60 mg/kg, male
  Fold of efficacious dose; 10 mg/kg: ~10.8
  Fold of efficacious dose; 30 mg/kg: ~3.6
Wistar rats; high dose 60 mg/kg daily oral for 14 days
  Target organs: Bone, bone marrow, brain, heart, intestines, liver, lung, lymph nodes, mammary gland, pancreas, reproductive tract (m and f), skin, spleen, stomach, thymus
Wistar rats; low dose 10 mg/kg daily oral for 14 days (CMPD 4)
  Target organs: Bone, bone marrow, intestines, liver, lung, lymph nodes, mammary gland, pancreas, reproductive tract (m and f), skin, spleen, stomach, thymus.
Wistar rats; mid dose 20 mg/kg daily oral for 14 days (CMPD 4)
  Target organs: Bone, bone marrow, heart, intestines, liver, lung, lymph nodes, mammary gland, pancreas, reproductive tract (m and f), skin, spleen, stomach, thymus
RKO [11]
  GI50: > 30000 nM
HT29
  GI50: > 30000 nM
DLD1 [12]
  GI50: > 30000 nM
SW948
  GI50: > 30000 nM
LS513 [13]
  GI50: > 30000 nM
LS180 [14]
  GI50: > 30000 nM
SW620
  GI50: > 30000 nM
SW837 [15]
  GI50: > 30000 nM
LS174T [16]
  GI50: > 30000 nM
COLO205 [17]
  GI50: > 30000 nM
Beagle dogs; female
  Fold of efficacious dose; 10 mg/kg: ~46
  Fold of efficacious dose; 30 mg/kg: ~15
Beagle dogs; male
  Fold of efficacious dose; 10 mg/kg: ~22
  Fold of efficacious dose; 30 mg/kg: ~7
Beagle dogs; low dose 20 mg/kg daily oral for 14 days
  Target organs: Bone marrow, heart, Intestines, lymphatic system
LS174T [18]; Homo sapiens, LS174T, read-out: LS174T IC50, basal WNT-pathway luciferase reporter, mean ± s.d. or *± range
  IC50: 29.5 ± 9.5 nM
LS174T [18]; read-out: LS174T IC50, basal WNT-pathway luciferase reporter, mean ± s.d. or *± range
  IC50: 36.2 ± 9.5 nM
p-STAT1^SER727; read-out: p-STAT1^SER727 IC50
  IC50: 7.7 ± 2.2 nM

## Cn1ncc2cc(-c3cnc(N)c(Cl)c3N3CCC4(CCNC4=O)CC3)ccc21 [CMPD 3]
Mouse PK; 0.2mg/kg i.v.
  Mouse PK Cl: 10.2 mL/min/kg
  Mouse PK Vd: 0.63 L/kg
Rat PK; 0.2mg/kg i.v.
  Rat PK Cl: 24.8 mL/min/kg
  Rat PK Vd: 1.99 L/kg
Dog PK
  Dog PK Cl: 17.8 mL/min/kg
  Dog PK Vd: 1.4 L/kg
COLO205 [1]
  IC50: 15 nM
DLD1 [2]
  IC50: 173 nM
LS180 [3]
  IC50: 28 nM
LS174T [4]
  IC50: 39 nM
RKO [5]
  IC50: > 30000 nM
SW837 [6]
  IC50: 14 nM
[8]; 5 x 1 mg/kg x doses/day, day 14, nr = no response, P ns
  TGI: nr
[8]; 10 x 1 mg/kg x doses/day, day 14, P ns
  TGI: 33%
[8]; 30 x 1 mg/kg x doses/day, day 14, 8 mice, P <0.05
  TGI: 48%
[8]; 30 x 1b mg/kg x doses/day, day 14, 9 mice, P <0.01
  TGI: 44%
[8]; 30 x 2 (5/7 d) and x 1 (2/7 d)e mg/kg x doses/day, day 14, P <0.01
  TGI: 44%
[9]; 30 x 1 (5/7 d) mg/kg x doses/day, day 21, P <0.001
  TGI: 55%
[10]; SW620 tumor xenografts, single treatment with 30 mg/kg
  Time biomarker (p-STAT1^SER727) inhibition maintained: approximately 10 hr
MV-4-11 AML xenograft; 10 mg/kg po qd monotherapy
  TGI: 100%
Wistar rats; high dose 20 mg/kg daily oral for 14 days (CMPD 3)
  Target organs: Bone, bone marrow, heart, liver, lung, lymph nodes, pancreas, reproductive tract (m and f), spleen, thymus.
Wistar rats; [19]
  Target organs: Bone, bone, marrow, heart, liver, lung, lymph nodes, pancreas, reproductive tract (m), spleen, thymus.
Wistar rats; mid dose 10 mg/kg daily oral for 14 days (CMPD 3)
  Target organs: Bone, bone marrow, heart, liver, lung, lymph nodes, pancreas, reproductive tract (m and f), spleen, thymus.
RKO [11]
  GI50: > 30000 nM
HT29
  GI50: > 30000 nM
DLD1 [12]
  GI50: > 30000 nM
SW948
  GI50: > 30000 nM
LS513 [13]
  GI50: > 30000 nM
LS180 [14]
  GI50: 6670 nM
SW620
  GI50: 1860 nM
SW837 [15]
  GI50: 3110 nM
LS174T [16]
  GI50: > 30000 nM
COLO205 [17]
  GI50: > 30000 nM
Beagle dogs; [19]
  Target organs: Bone marrow, gastrointestinal mucosa, heart, lymphatic system
LS174T [18]; Homo sapiens, LS174T, read-out: LS174T IC50
  IC50: 33.3 ± 12.8 nM
p-STAT1^SER727; read-out: p-STAT1^SER727 IC50, mean ± s.d. or *± range
  IC50: 22 ± 12 nM
p-STAT1^SER727; read-out: p-STAT1^SER727 IC50; mean ± s.d. or *± range
  IC50: 25.5 ± 12 nM
